Experimental data: patent US20230312587A1, “PTERIDINONE COMPOUNDS AND USES THEREOF” (Vertex Pharmaceutical Incorporated, priority 2018, published 2023)

These compounds were tested on β-catenin-TCF-mediated reporter transcription activity in Colo 205 cells (assay: Colo 205 reporter assay (TCF/LEF luciferase)). Conditions: Colo 205 TCF/LEF luciferase reporter, five hours after addition of compound; read-out: TCF reporter Colo205 IC50.
Format: cell-based
Summary of the method: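 Luciferase signal from a TCF/LEF-driven reporter, stably integrated in Colo 205 colon cancer cells, was measured 5 h after compound addition.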

Structure (SMILES)	IC50 [µM]
COCC1(C)C(=O)Nc2c(C)nc(NCc3cnn(Cc4ccc(C(F)(F)F)nc4)c3)nc2N1C (centres unmarked) [Compound 707, 7-(methoxymethyl)-4,7,8-trimethyl-2-(((1-((6-(trifluoromethyl)pyridin-3-yl)methyl)-1H-pyrazol-4-yl)methyl)amino)-7,8-dihydropteridin-6(5H)-one]	0.3 to 1

Same assay, conditions: Homo sapiens, 5 h; Colo 205 TCF/LEF luciferase reporter, five hours after addition of compound; read-out: TCF reporter Colo205 IC50

Structure (SMILES)	IC50 [µM]
Cc1nc(N[C@H]2C[C@@H](NC(=O)Oc3ccc(F)cc3)C2)nc2c1NC(=O)[C@H](C)N2C [Compound 464, 4-fluorophenyl (cis-3-(((S)-4,7,8-trimethyl-6-oxo-5,6,7,8-tetrahydropteridin-2-yl)amino)cyclobutyl)carbamate]	0.3 to 1

Same assay, conditions: Homo sapiens, COLO 205, 5 h, Colo 205 TCF/LEF luciferase reporter, five hours after addition of compound; read-out: TCF reporter Colo205 IC50

Structure (SMILES)	IC50 [µM]
Cc1nc(NCc2cnn(Cc3ccc(C(F)(F)F)nc3)c2)nc2c1NC(=O)C(C)(C)N2C [Compound 238, 4,7,7,8-Tetramethyl-2-(((1-((6-(trifluoromethyl)pyridin-3-yl)methyl)-1H-pyrazol-4-yl)methyl)amino)-7,8-dihydropteridin-6(5H)-one]	< 0.3
Cc1nc(NCc2cnn([C@@H](C)Cc3ccccc3)c2)nc2c1NC(=O)[C@H](C)N2C [Compound 102, (7S)-4,7,8-trimethyl-2-(((1-((S)-1-phenylpropan-2-yl)-1H-pyrazol-4-yl)methyl)amino)-7,8-dihydropteridin-6(5H)-one]	1 to 5
O=C1Nc2cnc(NCc3cnn(Cc4ccc(F)cc4)c3)nc2N[C@H]1CCO [Compound 11, (7S)-2-(((1-(4-Fluorobenzyl)-1H-pyrazol-4-yl)methyl)amino)-7-(2-hydroxyethyl)-7,8-dihydropteridin-6(5H)-one]	≥ 5
Cc1nc(NCc2cnn(CCC3CCCC3)c2)nc2c1NC(=O)[C@H](C)N2C [Compound 133, (7S)-2-(((1-(2-cyclopentylethyl)-1H-pyrazol-4-yl)methyl)amino)-4,7,8-trimethyl-7,8-dihydropteridin-6(5H)-one]	< 0.3
CN1C(=O)C(C)(C)Nc2nc(NCc3cnn(Cc4ccc(F)cc4)c3)ncc21 [Compound 225, 2-(((1-(4-Fluorobenzyl)-1H-pyrazol-4-yl)methyl)amino)-5,7,7-trimethyl-7,8-dihydropteridin-6(5H)-one]	≥ 5
C[C@H]1C(=O)Nc2cnc(NCc3cnn(CCc4cc(F)cc(F)c4)c3)nc2N1C [Compound 120, (7S)-2-(((1-(3,5-difluorophenethyl)-1H-pyrazol-4-yl)methyl)amino)-7,8-dimethyl-7,8-dihydropteridin-6(5H)-one]	0.3 to 1
Cc1nc(N[C@H]2C[C@@H](NC(=O)N(C)C3CCC(F)(F)CC3)C2)nc2c1NC(=O)[C@H](C(C)C)N2C [Compound 538, 1-(4,4-difluorocyclohexyl)-3-(cis-3-(((S)-7-isopropyl-4,8-dimethyl-6-oxo-5,6,7,8-tetrahydropteridin-2-yl)amino)cyclobutyl)-1-methylurea]	1 to 5
Cc1nc(N[C@H]2C[C@H](NC(=O)Nc3cc(F)c(F)c(F)c3)C2)nc2c1NC(=O)[C@H](C)N2C [Compound 474, 1-(3,4,5-trifluorophenyl)-3-(trans-3-(((S)-4,7,8-trimethyl-6-oxo-5,6,7,8-tetrahydropteridin-2-yl)amino)cyclobutyl)urea]	1 to 5
CC[C@H]1C(=O)N(C)c2cnc(NCc3cnn(Cc4cc(F)c(F)c(F)c4)c3)nc2N1C(C)C [Compound 36, (7S)-7-ethyl-8-isopropyl-5-methyl-2-(((1-(3,4,5-trifluorobenzyl)-1H-pyrazol-4-yl)methyl)amino)-7,8-dihydropteridin-6(5H)-one]	< 0.3
C[C@H]1C(=O)N(C)c2cnc(NCc3cnn(Cc4ccc(F)cc4)c3)nc2N1C [Compound 27, (7S)-2-(((1-(4-fluorobenzyl)-1H-pyrazol-4-yl)methyl)amino)-5,7,8-trimethyl-7,8-dihydropteridin-6(5H)-one]	0.3 to 1
Cc1nc(N[C@H]2C[C@H](NC(=O)N3CCC(F)(F)CC3)C2)nc2c1NC(=O)[C@H](C(C)C)N2C [Compound 523, 4,4-difluoro-N-(trans-3-(((S)-7-isopropyl-4,8-dimethyl-6-oxo-5,6,7,8-tetrahydropteridin-2-yl)amino)cyclobutyl)piperidine-1-carboxamide]	≥ 5
Cc1nc(NCc2cnn(Cc3ccc(C#N)cc3)c2)nc2c1NC(=O)[C@H](C)N2C [Compound 55, (7S)-4-((4-(((4,7,8-trimethyl-6-oxo-5,6,7,8-tetrahydropteridin-2-yl)amino)methyl)-1H-pyrazol-1-yl)methyl)benzonitrile]	< 0.3
Cc1nc(N[C@@H]2CCc3c2cnn3Cc2ccc(C(F)(F)F)nc2)nc2c1NC(=O)[C@H](C)N2C [Compound 625, (7S)-4,7,8-trimethyl-2-(((R)-1-((6-(trifluoromethyl)pyridin-3-yl)methyl)-1,4,5,6-tetrahydrocyclopenta[c]pyrazol-4-yl)amino)-7,8-dihydropteridin-6(5H)-one]	≥ 5
Cc1nc(N[C@H]2C[C@H](NC(=O)Cn3ccc(C(F)(F)F)n3)C2)nc2c1NC(=O)[C@H](C(C)C)N2C [Compound 554, N-(trans-3-(((S)-7-isopropyl-4,8-dimethyl-6-oxo-5,6,7,8-tetrahydropteridin-2-yl)amino)cyclobutyl)-2-(3-(trifluoromethyl)-1H-pyrazol-1-yl)acetamide]	1 to 5
Cc1nc(N[C@H]2C[C@@H](Cn3nc(C(F)(F)F)cc3N)C2)nc2c1NC(=O)[C@H](C(C)C)N2C [Compound 585, (S)-2-((cis-3-((5-amino-3-(trifluoromethyl)-1H-pyrazol-1-yl)methyl)cyclobutyl)amino)-7-isopropyl-4,8-dimethyl-7,8-dihydropteridin-6(5H)-one]	0.3 to 1
Cc1nc(NCc2cnn([C@@H](C)c3ccc(F)cc3)c2)nc2c1NC(=O)[C@H](C)N2C [Compound 71, (7S)-2-(((1-((S)-1-(4-fluorophenyl)ethyl)-1H-pyrazol-4-yl)methyl)amino)-4,7,8-trimethyl-7,8-dihydropteridin-6(5H)-one]	0.3 to 1
C[C@H]1C(=O)Nc2cnc(N[C@H]3C[C@H](OCc4ccc(F)c(F)c4)C3)nc2N1C [Compound 265, (7S)-2-((trans-3-((3,4-difluorobenzyl)oxy)cyclobutyl)amino)-7,8-dimethyl-7,8-dihydropteridin-6(5H)-one]	0.3 to 1
Cc1nc(N[C@H]2C[C@@H](Cn3nc(N)cc3C(F)(F)F)C2)nc2c1NC(=O)[C@H](C(C)C)N2C [Compound 584, (S)-2-((cis-3-((3-amino-5-(trifluoromethyl)-1H-pyrazol-1-yl)methyl)cyclobutyl)amino)-7-isopropyl-4,8-dimethyl-7,8-dihydropteridin-6(5H)-one]	≥ 5
Cc1nc(NCc2cnn([C@@H]3C[C@@H]3c3ccc(F)cc3)c2)nc2c1N(C)C(=O)[C@H](C)N2C [Compound 152, (7S)-2-(((1-((1R,2R)-2-(4-fluorophenyl)cyclopropyl)-1H-pyrazol-4-yl)methyl)amino)-4,5,7,8-tetramethyl-7,8-dihydropteridin-6(5H)-one]	< 0.3

Same assay, conditions: Homo sapiens, COLO 205, 5 h, R-isomer at C2 (corresponding to C2 S-isomer); Colo 205 TCF/LEF luciferase reporter, 5 h; read-out: TCF reporter Colo205 IC50

Structure (SMILES)	IC50 [µM]
CCN1C(=O)[C@@H](C)N(C(C)C)c2nc(NCc3cnn(Cc4ccc(F)cc4)c3)ncc21 [Compound I-1144]	0.3 to 1
Cc1nc(N[C@H]2C[C@H](Oc3cc(F)c(F)c(F)c3)C2)nc2c1NC(=O)[C@@H](CO)N2C [Compound I-1650]	1 to 5
